In brackets after ≈: the same amount, converted by molar mass.
Columns and labels:
Enterococcus faecium = assay: In vitro antibacterial activity against vancomycin-resistant Enterococcus faecium UC12712 (VRE).
Staphylococcus aureus [1] = assay: In vitro antibacterial activity against Staphylococcus aureus strains UC12673, UC9213, ATCC 29213, and UC9271 (SA); range is 16-32; format: functional
Streptococcus pneumoniae [2] = assay: In vitro antibacterial activity against Streptococcus pneumoniae strains ATCC 6305 and 31573 (SPN); range is 4-8
[3] = test system: Staphylococcus epidermidis; assay: In vitro antibacterial activity against Staphylococcus epidermidis strains UC12084, 30031, and CDC-CNS90 (SE); range is 4-8; format: functional
Staphylococcus aureus [4] = assay: In vitro antibacterial activity against linezolid-resistant Staphylococcus aureus ATCC 29213 (LRSA).; format: functional
Haemophilus influenzae [5] = assay: In vitro antibacterial activity against Haemophilia influenzae strains 30063 and ATCC 31517 (HI); range is 32->64; format: functional
Moraxella catarrhalis [6] = assay: In vitro antibacterial activity against Moraxella catarrhalis strains 30607 and 30603 (MC); range is 16-32; format: functional
[7] = test system: Staphylococcus epidermidis; assay: In vitro antibacterial activity against Staphylococcus epidermidis strains UC12084, 30031, and CDC-CNS90 (SE); format: functional
Streptococcus pneumoniae [8] = assay: In vitro antibacterial activity against Streptococcus pneumoniae strains ATCC6305 and 31573 (SPN).
Haemophilus influenzae [9] = assay: In vitro antibacterial activity against Haemophilia influenzae strains ATCC 30063 and ATCC 31517; format: functional
Moraxella catarrhalis [10] = assay: In vitro antibacterial activity against Moraxella catarrhalis strains 30607 and 30603 (MC).; format: functional
Staphylococcus aureus [11] = assay: In vitro antibacterial activity against Staphylococcus aureus strains UC12673, UC9213, ATCC 29213, and UC9271 (SA); format: functional
Staphylococcus aureus [12] = assay: In vitro antibacterial activity against Staphylococcus aureus strains UC12673, UC9213, ATCC 29213, and UC9271 (SA); range is 2-4; format: functional
Moraxella catarrhalis [13] = assay: In vitro antibacterial activity against Moraxella catarrhalis strains 30607 and 30603 (MC); range is 8-16; format: functional
Streptococcus pneumoniae [14] = assay: In vitro antibacterial activity against Streptococcus pneumoniae strains ATCC 6305 and 31573 (SPN).; format: functional
[15] = test system: Staphylococcus epidermidis; assay: In vitro antibacterial activity against Staphylococcus epidermidis strains UC12084, 30031, and CDC-CNS90 (SE); range is 1-2; format: functional
Staphylococcus aureus [16] = assay: In vitro antibacterial activity against Staphylococcus aureus strains UC12673, UC9213, ATCC 29213, and UC9271 (SA); range is 2-8; format: functional
Moraxella catarrhalis [17] = assay: In vitro antibacterial activity against Moraxella catarrhalis strains 30607 and 30603 (MC); range is 32->64; format: functional
[18] = test system: Staphylococcus epidermidis; assay: In vitro antibacterial activity against Staphylococcus epidermidis strains UC12084, 30031, and CDC-CNS90 (SE); range is 32-64; format: functional
Staphylococcus aureus [19] = assay: In vitro antibacterial activity against Staphylococcus aureus strains UC12673, UC9213, ATCC 29213, and UC9271 (SA); range is 4-16; format: functional
Haemophilus influenzae [20] = assay: In vitro antibacterial activity against Haemophilia influenzae strains 30063 and ATCC 31517 (HI); range is 4-16; format: functional
[21] = test system: Staphylococcus epidermidis; assay: In vitro antibacterial activity against Staphylococcus epidermidis strains UC12084, 30031, and CDC-CNS90 (SE); range is 0.5-1; format: functional
Haemophilus influenzae [22] = assay: In vitro antibacterial activity against Haemophilia influenzae strains 30063 and ATCC 31517 (HI); range is 32-64; format: functional
Staphylococcus aureus [23] = assay: In vitro antibacterial activity against Staphylococcus aureus strains UC12673, UC9213, ATCC 29213, and UC9271 (SA); range is 4-8; format: functional

Compound	MIC (Enterococcus faecium) [µg/mL]	MIC (Staphylococcus aureus [4]) [µg/mL]	MIC [7] [µg/mL]	MIC (Haemophilus influenzae [9]) [µg/mL]	MIC (Moraxella catarrhalis [10]) [µg/mL]	MIC (Staphylococcus aureus [11]) [µg/mL]	further results
COCC(=O)NC[C@H]1CN(c2ccc(N3CC[S+]([O-])CC3)c(F)c2)C(=O)O1	16 (≈ 40.1 µM)	> 64	–	–	–	–	MIC (Staphylococcus aureus [1]): 16 µg/mL (≈ 40.1 µM); MIC (Streptococcus pneumoniae [2]): 4 µg/mL (≈ 10 µM); MIC [3]: 4 µg/mL (≈ 10 µM); MIC (Haemophilus influenzae [5]): 32 µg/mL (≈ 80.1 µM); MIC (Moraxella catarrhalis [6]): 16 µg/mL (≈ 40.1 µM)
O=C1O[C@@H](CNC(=O)C(F)(F)F)CN1c1ccc(N2CC[S+]([O-])CC2)c(F)c1	> 64	> 64	> 64	> 64	> 64	> 64	MIC (Streptococcus pneumoniae [8]): > 64 µg/mL
O=C(/C=C/c1ccc(Cl)cc1)NC[C@H]1CN(c2ccc(N3CC[S+]([O-])CC3)c(F)c2)C(=O)O1	2 (≈ 4.07 µM)	8 (≈ 16.3 µM)	1 (≈ 2.03 µM)	–	8 (≈ 16.3 µM)	–	MIC (Staphylococcus aureus [12]): 2 µg/mL (≈ 4.07 µM); MIC (Haemophilus influenzae [5]): 32 µg/mL (≈ 65 µM)
COc1ccc(/C=C/C(=O)NC[C@H]2CN(c3ccc(N4CC[S+]([O-])CC4)c(F)c3)C(=O)O2)cc1	4 (≈ 8.2 µM)	> 64	2 (≈ 4.1 µM)	> 64	> 64	4 (≈ 8.2 µM)	–
CC(=O)Oc1ccc(/C=C/C(=O)NC[C@H]2CN(c3ccc(C4CC[S+]([O-])CC4)c(F)c3)C(=O)O2)cc1 (stereo not given in full)	–	–	–	32 (≈ 62.2 µM)	–	–	MIC (Moraxella catarrhalis [13]): 8 µg/mL (≈ 15.5 µM); MIC (Streptococcus pneumoniae [14]): 8 µg/mL (≈ 15.5 µM); MIC [15]: 1 µg/mL (≈ 1.94 µM); MIC (Staphylococcus aureus [16]): 2 µg/mL (≈ 3.89 µM)
O=C1O[C@@H](CNC(=O)C(F)(F)F)CN1c1ccc(N2CCS(=O)(=O)CC2)c(F)c1	16 (≈ 36.4 µM)	16 (≈ 36.4 µM)	8 (≈ 18.2 µM)	≥ 64	–	–	MIC (Staphylococcus aureus [1]): 16 µg/mL (≈ 36.4 µM); MIC (Moraxella catarrhalis [17]): 32 µg/mL (≈ 72.8 µM)
O=C(NC[C@H]1CN(c2ccc(C3CCS(=O)(=O)CC3)c(F)c2)C(=O)O1)c1ccc(Cl)c(Cl)c1	–	–	2 (≈ 3.88 µM)	> 64	> 64	> 64	MIC (Streptococcus pneumoniae [14]): > 64 µg/mL
COc1ccc(OC)c(C(=O)NC[C@H]2CN(c3ccc(N4CC[S+]([O-])CC4)c(F)c3)C(=O)O2)c1	> 64	> 64	–	> 64	> 64	≥ 64	MIC [18]: 32 µg/mL (≈ 65.1 µM)
O=C(NC[C@H]1CN(c2ccc(C3CCS(=O)(=O)CC3)c(F)c2)C(=O)O1)C(F)F	4 (≈ 9.51 µM)	32 (≈ 76.1 µM)	–	–	8 (≈ 19 µM)	–	MIC (Staphylococcus aureus [19]): 4 µg/mL (≈ 9.51 µM); MIC (Streptococcus pneumoniae [8]): 1 µg/mL (≈ 2.38 µM); MIC (Haemophilus influenzae [20]): > 4 µg/mL; MIC [15]: 1 µg/mL (≈ 2.38 µM)
O=C(CF)NC[C@H]1CN(c2ccc(C3CCS(=O)(=O)CC3)c(F)c2)C(=O)O1	2 (≈ 4.97 µM)	64 (≈ 159 µM)	–	–	> 8	2 (≈ 4.97 µM)	MIC (Streptococcus pneumoniae [8]): 0.5 µg/mL (≈ 1.24 µM); MIC [21]: 0.5 µg/mL (≈ 1.24 µM); MIC (Haemophilus influenzae [20]): > 4 µg/mL
O=C(/C=C/c1ccc(O)cc1)NC[C@H]1CN(c2ccc(C3CC[S+]([O-])CC3)c(F)c2)C(=O)O1 (stereo not given in full)	4 (≈ 8.46 µM)	> 64	–	> 64	–	–	MIC (Moraxella catarrhalis [13]): 8 µg/mL (≈ 16.9 µM); MIC [15]: 1 µg/mL (≈ 2.12 µM); MIC (Staphylococcus aureus [16]): 2 µg/mL (≈ 4.23 µM)
O=C(/C=C/c1ccc(F)cc1)NC[C@H]1CN(c2ccc(N3CC[S+]([O-])CC3)c(F)c2)C(=O)O1	4 (≈ 8.41 µM)	32 (≈ 67.3 µM)	2 (≈ 4.21 µM)	–	–	–	MIC (Haemophilus influenzae [22]): 32 µg/mL (≈ 67.3 µM); MIC (Staphylococcus aureus [23]): 4 µg/mL (≈ 8.41 µM); MIC (Moraxella catarrhalis [6]): 16 µg/mL (≈ 33.6 µM)
O=C(NC[C@H]1CN(c2ccc(N3CC[S+]([O-])CC3)c(F)c2)C(=O)O1)c1csnn1	16 (≈ 36.4 µM)	> 64	8 (≈ 18.2 µM)	64 (≈ 146 µM)	–	–	MIC (Staphylococcus aureus [1]): 16 µg/mL (≈ 36.4 µM); MIC (Moraxella catarrhalis [17]): 32 µg/mL (≈ 72.8 µM)

Reference: ChEMBL document CHEMBL1136459, “New antibacterial tetrahydro-4(2H)-thiopyran and thiomorpholine S-oxide and S,S-dioxide phenyloxazolidinones” (Bioorg Med Chem Lett, 2003)
